Test [1] relates to ERK1/2 phosphorylation in HEK293 cells overexpressing GPR83 or GPR83del. Nature of the test: ERK1/2 phosphorylation (immunoblot), GPR83 cells. Format: cell-based, human. The note with it: 15 min; for phosphorylation of ERK1/2: 10 µM PEN #1, 100 ng/mL EGF or 200 nM PMA, HEK293 overexpressing GPR83 or GPR83del as well as wild-type HEK293, n = 2 independent experiments. An excerpt:
Apart from G protein-mediated second messenger signaling via Ca^2+ and cAMP, GPCR stimulation may also lead to activation of β-arrestin and phosphorylation of extracellular signal-regulated kinases 1/2 (ERK1/2). Immunoblot analysis was employed to investigate ligand-dependent phosphorylation of ERK1/2 in HEK293 cells overexpressing GPR83 or the deletion variant GPR83del as well as in wild-type HEK293 cells.
Figure 4 Ligand-dependent phosphorylation of ERK1/2 and β-arrestin (TANGO) assay. (A) Immunoblot detection of phosphorylated (upper blot) and total (lower blot) ERK1/2 in lysates of HEK293 wild-type cells and in HEK293 cells overexpressing GPR83 or GPR83del. (B) Quantification (mean ± SD of n = 2 independent experiments) of chemiluminescent readout of the immunoblots shown in (A). (C) TANGO assay for ligand-induced β-arrestin activity in HTLA cells overexpressing GPR83 (relative light units, RLU). (D) TANGO assay for ligand-induced β-arrestin activity in HTLA cells overexpressing bradykinin receptor BDKBR2.
4.7. ERK1/2 Phosphorylation Assay
Effects of GPCR ligands on MAPK signaling were assessed with Western blot analysis of lysates from stimulated cells. The ERK1/2 activation assay was performed as described before. Briefly, 50,000 cells per well were seeded onto adherent 6-well plates and cultured until cells were 80% confluent. After incubation with ligands (10 µM PEN #1 and 100 ng/mL EGF or 200 nM PMA in 0.1% FCS/DMEM) for 15 min, cells were lysed using 200 µL/well cell lysis buffer (100 mM Tris-HCl pH 8.8, 1% SDS) and protease inhibitors (cOmplete, Roche, Basel, Switzerland) on ice for one hour. Immunolabeling was realized using the rabbit monoclonal primary antibody anti-phospho-ERK1/2 Thr^202/Tyr^204 (#4370, Cell Signaling Technologies, Danvers, MA, USA, 1:2000), or anti-total ERK1/2 (#05-1152; Millipore, Burlington, VT, USA; 1:2000), respectively. Blots were analyzed using densitometric quantification using Image Lab Software v4.1 (Bio-Rad).
(In western blotting, separated proteins are transferred to a membrane and probed.)

Test [2] concerns GPR83 and GPR83del (HEK293 and U2OS clones; wild-type cells as comparison). The test can be described thus: Ligand-dependent cAMP formation. Format: cell-based, human. The settings on record: 1 µM PEN or 50 µM forskolin, GPR83-overexpressing clones and wild-type HEK293 and U2OS cells, 10 min incubation, LANCE Ultra cAMP kit, TR-FRET competition, duplicate. The method, then:
Production of cyclic adenosine monophosphate (cAMP) is a hallmark of GPCRs signaling via the Gs-induced pathway. To investigate the potential of PEN to stimulate cAMP production mediated by GPR83, levels of the second messenger were determined after incubation with PEN of various GPR83-overexpressing clones as well as wild-type HEK293 and U2OS cells.
Figure 3 Analysis of ligand-dependent, GPR83-mediated cAMP production. (A) Wild-type HEK293 and U2OS cells as well as various clones with confirmed overexpression of either GPR83 or the deletion variant GPR83del (both ± HA tag) were incubated with either buffer, 1 µM PEN, or 50 µM forskolin. (B) Selected GPR83-overexpressing HEK293 clones were assayed for cAMP production using different concentrations of PEN. (C) Selected GPR83-overexpressing U2OS clones were assayed for cAMP production using different concentrations of PEN.
To measure intracellular cAMP production, the LANCE Ultra cAMP kit (Perkin Elmer) was used according to the manufacturer’s instructions. The day before the experiment, cells were seeded onto a 96-well plate with approximately 80% confluence. After 16–24 h, the medium was removed, and 100 μL/well of serum-free medium was added, followed by a 3 h incubation. Thereafter, medium was removed, and 40 μL of ligand dissolved in cAMP stimulation buffer was pipetted onto cells, then incubated for 10 min. The ligands used were pipetted in duplicate. For concentration–response curves, serial dilutions were carried out from the stock solutions of 1 mM to create a concentration range from 1 µM to 30 pM. As controls, 4 wells were treated with buffer only (negative control) and 4 wells with 50 μM forskolin (positive control). After a 10 min incubation, 10 μL of a 0.5% Triton-X 100 solution in PBS was added to each well. To lyse cells, the plate was shaken on a Vibramax 100 Shaker (Heidolph, Kelheim, Germany) (750 rpm) at room temperature for 10 min. A 10 μL volume of the cell lysates were transferred into a white 384 well plate (ProxiPlate, PerkinElmer). A 5 μL volume of the Europium-cAMP tracer (1 to 50 dilution of Eu-tracer stock in cAMP detection buffer) was added to each well. Next, 5 μL of the ULight-anti-cAMP solution (1 to 150 dilution of ULight-tracer stock in cAMP detection buffer) was added to each well. After a 1 h incubation period at room temperature in the dark, the TR-FRET signal was measured using an EnVision 2103 Multilabel Reader (Perkin Elmer).
For orientation: Changes in cAMP serve as a functional read-out for many G protein-coupled receptors.

The test system of test [3] is GPR83 and GPR83del, with or without HA tag (HEK293 cells; wild-type HEK293 as comparison). The test can be described thus: Competitive radioligand binding assay, GPR83. Also on record: species or system human. The note with it: pH 7.4, 2 h; for radioligand binding signal: 100,000 cpm 125I-labelled peptide, wild-type HEK293 and HEK293 expressing full-length or deletion variant GPR83, with or without HA tag. The source says: One of the most proven methods for quantitatively analyzing the interaction of biomolecules is the competitive radioligand binding assay. […] To safeguard against possible interference of the added Tyr with ligand–receptor binding, two peptides were created and are as follows: one with the Tyr on the aminoterminal end (Tyr-PEN), and the other with Tyr added on the carboxyterminus (PEN-Tyr). Radiolabeled ^125I-PEN-Tyr and ^125I-Tyr-PEN were then used on wild-type HEK293 cells and HEK293 cells expressing various forms of GPR83 (full-length or deletion variant, with or without HA tag) in competition with different concentrations of natural PEN or Tyr-PEN, ranging from 1 pM to 1 µM.
Figure 5 HEK293 wild-type cells and HEK293 cells overexpressing various forms of GPR83 were used in radioligand binding assays with two different radioactively labeled PEN peptides: [^125I]-Tyr-PEN or [^125I]-PEN-Tyr. (A) Radioligand [^125I]-PEN-Tyr in competition with unlabeled wild-type PEN. (B) Radioligand [^125I]-Tyr-PEN in competition with unlabeled wild-type PEN. (C) Radioligand [^125I]-PEN-Tyr in competition with unlabeled wild-type PEN. (D) Radioligand [^125I]-Tyr-PEN in competition with Tyr-PEN. […]
Two variants of human PENs were utilized for radioiodination in this study: one with a tyrosine added at the aminoterminal end (Tyr-PEN: […]-NH2), and one with an additional tyrosine attached to the carboxyterminal end (PEN-Tyr: […]-NH2). Both were labelled with ^125I using the chloramine-T method. Chloramine-T and sodium metabisulfite solutions were freshly prepared in water. For labelling, 10 µL of peptide (stock 1 mM) with 15 µL of sodium phosphate buffer (0.5 M, pH 7.6) was mixed with 37 MBq carrier-free Na^125I (NEZ033L010MC, Perkin Elmer, Waltham, MA, USA). A 4 μL volume of chloramine T (1 mg/mL) was added to start the reaction, and after 30 s, 4 μL sodium metabisulfite (2 mg/mL) was added to stop the iodination. The labeled radioactive peptide was separated from unlabeled peptide with HPLC purification (Agilent ZORBAX 300 Extend-C18 column) using a gradient from 20–50% acetonitrile (+0.1% TFA) against water (+0.1% TFA) for 20 min. To determine the retention time of the radioactive peptide, 1–2 µL of the reaction mixture was analyzed before the purification run. The fraction containing the radiolabeled peptide peak was then collected, diluted with binding buffer to prevent radioautolysis, aliquoted, and stored at −80 °C.
4.10. Radioligand Binding Assay
For competitive radioligand binding assay, approximately 50,000 cells/well were seeded in a 96-well plate incubated overnight at 37 °C. Next day, cells were incubated in binding buffer (50 mM HEPES pH 7.4, 5 mM MgCl2, 1 mM CaCl2, 0.5% BSA, cOmplete protease inhibitors) containing 100,000 counts per minute of ^125I-labelled peptide, with increasing concentrations of unlabeled peptide. After 2 h of incubation, cells were washed for 2–3 times with ice-cold washing buffer (50 mM Tris-HCl, pH 7.4, 125 mM NaCl, 0.05% BSA) and lysed with 1 N NaOH (80 µL/well). The lysed cells were transferred to vials and measured in a gamma counter (Wallac 1470 Wizard, Perkin Elmer, Waltham, MA, USA). Obtained cpm values were plotted with GraphPad Prism 7, and the data were fitted using nonlinear regression (one site—fit Ki, one site—fit logIC50).

Take `CCCCCCCCCCCCCC(=O)O[C@@H]1[C@@H](C)[C@@]2(O)[C@@H](C=C(CO)C[C@]3(O)C(=O)C(C)=C[C@@H]23)[C@@H]2C(C)(C)[C@]12OC(C)=O` [PMA, phorbol-12-myristate-13-acetate, reference compound]: the “phosphorylation of ERK1/2” value in test [1] is recorded as “substantially induced phosphorylation of ERK1/2”.

Take `C=C[C@@]1(C)CC(=O)[C@]2(O)[C@@]3(C)[C@@H](O)CCC(C)(C)[C@@H]3[C@H](O)[C@H](OC(C)=O)[C@@]2(C)O1` [forskolin, reference compound]: the cAMP levels entry is recorded as “strongly increased cAMP levels” in test [2] and “strong induction of intracellular cAMP” in test [2] (listed as Forskolin).

Turning to “EGF: positive control, epithelial growth factor (as printed) (NSDSECPLSHDGYCLHDGVCMYIEALDKYACNCVVGYIGERCQYRDLKWWELR; Epidermal growth factor; UniProt P01133 971-1023, looked up)”, in test [1] (100 ng/mL EGF, compared with PEN and PMA, n = 2), the “phosphorylation of ERK1/2, rank of response” value is recorded as “strongest response”. Also, the “phosphorylation of ERK1/2” value in test [1] is given as “substantially induced phosphorylation of ERK1/2”.

On to “YAADHDVGSELPPEGVLGALLRV-NH2 [Tyr-PEN, human PEN with a tyrosine added at the aminoterminal end]”, for which the “concentration-dependent displacement of radioligand” value in test [3] (unlabeled peptide 1 pM to 1 µM versus 125I-PEN-Tyr or 125I-Tyr-PEN, HEK293 wild-type and GPR83 / GPR83del with or without HA tag) is listed as “neither of these different assay conditions led to a PEN-GPR83 binding signal above background or a concentration-dependent displacement of the radioligand”.

“^125I-PEN-Tyr: PEN-Tyr labelled with 125I using the chloramine-T method”: the radioligand binding signal entry in test [3] was “neither of these different assay conditions led to a PEN-GPR83 binding signal above background”.

Consider “^125I-Tyr-PEN: Tyr-PEN labelled with 125I using the chloramine-T method”, for which the radioligand binding signal result in test [3] is on record as “neither of these different assay conditions led to a PEN-GPR83 binding signal above background”.

Values taken from paper PMC10606834, “Is the Neuropeptide PEN a Ligand of GPR83?” (International Journal of Molecular Sciences, 2023).
